According to ChEMBL document CHEMBL1145256, “Synthesis of novel 10-deoxoartemisinins” (Bioorg Med Chem Lett, 2005):

Experiments:
Plasmodium falciparum [1] = experiment: microbe, parasite or virus in culture
Description: In vitro antimalarial activity against Plasmodium falciparum (Ghana)

Plasmodium falciparum [2] = experiment: microbe, parasite or virus in culture; remark: listed apart in the source
Description: In vitro antimalarial activity against Plasmodium falciparum resistant W-2

Row | SMILES | IC50 (Plasmodium falciparum [1]) [nM] | IC50 (Plasmodium falciparum [2]) [nM]
1 | C[C@H]1[C@@H](CCOC(=O)C2CCCCC2C(=O)O)O[C@@H]2O[C@]3(C)CC[C@H]4[C@H](C)CC[C@@H]1[C@@]24OO3 (some centres not stated) | 0.5 | 0.4
2 | C[C@H]1[C@@H](CCOC(=O)CCC(=O)O)O[C@@H]2O[C@]3(C)CC[C@H]4[C@H](C)CC[C@@H]1[C@@]24OO3 | 0.5 | 0.4
3 | C[C@H]1[C@@H](CCO)O[C@@H]2OC3(C)CC[C@H]4[C@H](C)CC[C@@H]1[C@@]24OO3 (single isomer, unassigned) | 1 | 1
4 | C[C@H]1[C@@H](CCNCCc2ccccc2)O[C@@H]2O[C@]3(C)CC[C@H]4[C@H](C)CC[C@@H]1[C@@]24OO3 | 11 | 20
5 | C[C@@H]1CC[C@H]2[C@@H](C)C(=O)O[C@@H]3O[C@@]4(C)CC[C@@H]1[C@]32OO4 [ARTEMISININ] | 9 | –
6 | C[C@H]1[C@@H](CCNCc2cccnc2)O[C@@H]2O[C@]3(C)CC[C@H]4[C@H](C)CC[C@@H]1[C@@]24OO3 | 1 | 1
7 | C[C@H]1[C@@H](CCNCc2ccccn2)O[C@@H]2O[C@]3(C)CC[C@H]4[C@H](C)CC[C@@H]1[C@@]24OO3 | 2 | 2
8 | CCCNCC[C@H]1O[C@@H]2O[C@]3(C)CC[C@H]4[C@H](C)CC[C@@H]([C@H]1C)[C@@]24OO3 | 1 | 3
9 | C[C@H]1[C@@H](CCOC(=O)C2CC=CCC2C(=O)O)O[C@@H]2O[C@]3(C)CC[C@H]4[C@H](C)CC[C@@H]1[C@@]24OO3 (some centres not stated) | 0.5 | 0.4
